Like-named read-outs stand apart in the source and are kept apart here.
Columns and labels:
HepG2 cells = test: ACAT inhibitory activity (anti-foamation activity) in HepG2 cells; assay type: cell-based; conditions: 10 µg/ml 25-OH cholesterol, 18 hours, cholesterol ester = TC minus FC per protein, read-out: Enzyme (HepG2) IC50
Procedure: (§1) J774 cells or HepG2 cells were spread on a 24-well plate. The cells were incubated in a 5% CO2 incubator at 37°C for 24 hours using DMEM in the case of the J774 cells and a MEM culture solution in the case of the HepG2 cells (both containing 10% fetal calf serum).
(§2) The medium was removed, and the residue was washed twice with PBS, then extracted with 1.5 ml of a hexane:isopropanol (3:2) mixture, and concentrated to dryness. The extract was dissolved in 0.2 ml of isopropanol containing 10% Triton X-100. Total cholesterol (TC) and free cholesterol (FC) were measured using Cholesterol E Test Wako (supplied by Wako Pure Chemical Industries, Ltd.) and Free Cholesterol E Test Wako (supplied by Wako Pure Chemical Industries, Ltd.).
(§3) The cell extract residue was solubilized in 0.25 ml of 2N NaOH at 37°C for 30 minutes, and the protein amount was measured using BCA Protein Assay Reagent (Pierce).
(§4) The amount of cholesterol based on the protein was calculated from the difference between TC and FC, and an IC50 value was obtained from the calculation in contrast with the control.

J774 cells = test: ACAT inhibitory activity (anti-foamation activity) in J774 cells; assay type: cell-based; conditions: for IC50: J774 cells, 10 µg/ml 25-OH cholesterol, 18 hours, cholesterol ester = TC minus FC per protein, read-out: Enzyme (J774) IC50; for IC50 (HepG2) / IC50 (J774): ratio HepG2 / J774
Procedure: as §1, §2, §3, §4

[1] = target: ACAT enzyme from the blood vessel wall (Oryctolagus cuniculus, UniProt G1SUQ0); test: ACAT inhibitory activity, microsomal enzyme from the blood vessel wall (breast aorta); assay type: biochemical, rabbit; conditions: for IC50 (B‡) / IC50 (A‡): ratio small intestine / blood vessel wall
ACAT enzyme from the blood vessel wall, sequence (G1SUQ0 entry or part of it): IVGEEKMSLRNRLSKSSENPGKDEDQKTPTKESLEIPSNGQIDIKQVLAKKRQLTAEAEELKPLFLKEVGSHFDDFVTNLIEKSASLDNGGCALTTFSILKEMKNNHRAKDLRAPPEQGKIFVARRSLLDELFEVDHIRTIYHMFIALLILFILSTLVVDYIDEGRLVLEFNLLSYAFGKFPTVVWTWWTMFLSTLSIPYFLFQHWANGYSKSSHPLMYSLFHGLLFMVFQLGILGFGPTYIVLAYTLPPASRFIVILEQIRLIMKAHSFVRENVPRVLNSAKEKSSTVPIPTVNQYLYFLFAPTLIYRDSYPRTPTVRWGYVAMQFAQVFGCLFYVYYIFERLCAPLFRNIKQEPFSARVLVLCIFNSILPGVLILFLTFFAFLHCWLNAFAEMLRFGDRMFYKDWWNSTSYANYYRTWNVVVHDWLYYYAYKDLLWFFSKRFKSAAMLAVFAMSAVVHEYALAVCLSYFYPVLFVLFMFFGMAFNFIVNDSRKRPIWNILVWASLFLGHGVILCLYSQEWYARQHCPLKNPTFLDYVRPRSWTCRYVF
Procedure: A microsome was prepared from the breast aorta of a rabbit which had been fed with 1% cholesterol food for 8 weeks in a usual manner, and suspended in a 0.15 M phosphate buffer solution (pH 7.4) to form an enzyme solution. An enzyme solution derived from the small intestine was prepared from the small intestine of a rabbit that had eaten a normal food.
To this solution were added 10 µl of the enzyme solution, and the mixture was reacted at 37°C for 5 minutes (for 3 minutes in the case of the small intestine). Then, 3 ml of a chloroform/methanol (2/1) mixture and 0.5 ml of 0.04 N hydrochloric acid were added thereto to stop the reaction. The lipid was then extracted. The solvent layer was concentrated to dryness, and dissolved in hexane. The solution was spotted on a TLC plate (supplied by Merck Co.). The elution was conducted with a hexane:ether:acetic acid (75:25:1) mixture.
The radioactivity of the resulting cholesterol ester fraction was measured using BAS 2000 (supplied by Fuji Photo Film Co., Ltd.). An IC50 value was obtained from the calculation in contrast with a control containing only DMSO.

Row | Compound | IC50 (HepG2 cells; Homo sapiens) [nM] | IC50 (J774 cells; Mus musculus) [nM] | IC50 (HepG2) / IC50 (J774) (J774 cells) | IC50 (HepG2 cells) [nM] | IC50 (J774 cells) [nM] | IC50 ([1]; A‡: the blood vessel wall, microsome from breast aorta of rabbit fed 1% cholesterol food for 8 weeks, 14C-Oleoyl-CoA 40 µM, 37°C, 5 minutes) [nM] | IC50 (B‡) / IC50 (A‡) [1]
1 | CSc1cc(C)nc(SC)c1NC(=O)CCCCCSc1nc2ccccc2s1 [Compound No. 795, 6-(benzothiazol-2-ylthio)-N-[2,4-bis(methylthio)-6-methyl-3-pyridyl]hexanamide] | 350 | 50 | 7.0 |  |  |  | 
2 | CSc1cc(C)nc(SC)c1NC(=O)CCCCCCCSc1nc2ccccc2s1 [Compound No. 797, 8-(benzthiazol-2-ylthio)-N-[2,4-bis(methylthio)-6-methyl-3-pyridyl)octanamide] | 29 | 3.6 | 8.1 |  |  |  | 
3 | CCSc1cc(C)nc(SCC)c1NC(=O)CSc1nc2ccccc2o1 [Compound No. 811, 2-(benzoxazol-2-ylthio)-N-[2,4-bis(ethylthio)-6-methyl-3-pyridyl]acetamide] | 1800 | 50 | 36.0 |  |  |  | 
4 | CCSc1cc(C)nc(SCC)c1NC(=O)CCCCCSc1nc2ccccc2o1 [Compound No. 815, 6-(benzoxazol-2-ylthio)-N-[2,4-bis(ethylthio)-6-methyl-3-pyridyl]hexanamide] | 2600 | 120 | 21.7 |  |  |  | 
5 | CCSc1cc(C)nc(SCC)c1NC(=O)CCCCCCCCSc1nc2ccccc2o1 [Compound No. 818, 9-(benzoxazol-2-ylthio)-N-[2.4-bis(ethylthio)-6-methyl-3-pyridyl]nonanamide] | 63 | 62 | 1.0 |  |  |  | 
6 | CCSc1cc(C)nc(SCC)c1NC(=O)CSc1nc2ccccc2[nH]1 [Compound No. 831, 2-(benzimidazol-2-ylthio)-N-[2,4-bis(ethylthio)-6-methyl-3-pyridyl]acetamide] | 5400 | 57 | 94.7 |  |  |  | 
7 | CSc1cc(C)nc(SC)c1NC(=O)CCCCCCCSc1nc2cccc(C(F)(F)F)c2o1 [Compound No. 1253, 8-(7-trifluoromethylbenzoxazol-2-ylthio)-N-[2,4-bis(methylthio)-6-methyl-3-pyridyl]octanamide] | 4.4 | 4.1 | 1.1 |  |  |  | 
8 | CCSc1cc(C)nc(SCC)c1NC(=O)CCCCCCSc1nc2c(C)c(Cl)cc(C(C)C)c2o1 [Compound No. 1282, 7-(5-chloro-7-isopropyl-4-methylbenzoxazol-2-ylthio)-N-[2,4-bis(ethylthio)-6-methyl-3-pyridyl]heptanamide] | 6.2 | 3.2 | 1.9 |  |  |  | 
9 | Cc1cc(SC(C)C)c(NC(=O)CCCCCCSc2nc3cccc(C(F)(F)F)c3o2)c(SC(C)C)n1 [Compound No. 1292, 7-(7-trifluoromethylbenzoxazol-2-ylthio)-N-[2,4-bis(isopropylthio)-6-methyl-3-pyridyl] heptanamide] |  |  | 11.1 | 30 | 2.7 |  | 
10 | Cc1cc(SC(C)C)c(NC(=O)CCCCCCSc2nc3c(C)c(Cl)cc(C(C)C)c3o2)c(SC(C)C)n1 [Compound No. 1302, 7-(5-chloro-7-isopropyl-4-methylbenzoxazol-2-ylthio)-N-[2,4-bis(isopropylthio)-6-methyl-3-pyridyl]heptanamide] | 15 | 2.1 | 7.1 |  |  |  | 
11 | CC(C)c1cccc(C(C)C)c1NC(=O)C(C)(C)CCCOc1ccc2c(c1)C=C(c1nccn1C)C(CCc1ccc(F)cc1)O2 (centres unmarked) [Control 1, 5-[2-(2-(4-fluorophenyl)ethyl)-3-(1-methyl-1H-imidazol-2--yl)-2H-1-benzopyran-6-yl]oxy-2,2-dimethyl-N-(2,6-diisopropylphenyl)pentanamide, reference compound] | 5300 | 560 | 9.5 |  |  | 450 | 1.9
12 | CCCCCCCCCN(CC(C)(C)C)C(=O)N[C@H]1CCCC[C@@H]1OC(=O)CCNC(=O)C1OC(C)(C)OCC1(C)C (stereo partly drawn) [Control 3, N-(2,2,5,5-tetramethyl-1,3-dioxan-4-ylcarbonyl)-β-alanine 2 (S)-[N'-(2,2-dimethylpropyl)-N'-nonylureido]-1(S)-cyclohexyl ester, reference compound] | 1300 | 320 |  |  |  |  | 
13 | CCCCCCCN(CCCCCSc1nc(-c2ccccc2)c(-c2ccccc2)[nH]1)c1nc2ccccc2o1 [Control 4, [5-(4,5-diphenyl-1H-imidazol-2-ylthio)pentyl]-N-heptyl-2-benzoxazolamie, reference compound] | 750 | 120 | 6.3 |  |  |  | 1.4
14 | CC(C)c1cccc(C(C)C)c1NC(=O)CCCCCSc1nc2ccccc2o1 [Control 5, 6-(benzoxazol-2-ylthio)-N-(2,6-diisopropylphenyl)hexanamide, reference compound] | 1600 | 1900 | 0.8 |  |  |  | 
15 | Cc1cc(SC(C)C)c(NC(=O)CCCCCCCCSc2nc3cccc(C(F)(F)F)c3o2)c(SC(C)C)n1 [compound 1294, 9-(7-trifluoromethylbenzoxazol-2-ylthio)-N-[2,4-bis(isopropylthio)-6-methyl-3-pyridyl] nonanamide] |  |  | 0.6 | 2.4 | 4.2 |  | 

Source: patent EP0979823B1, “NOVEL AMIDE COMPOUNDS AND DRUGS CONTAINING THE SAME” (Kowa Company Ltd., priority 1997, dated 1999)
